How the values were obtained:
[1] = target: T1, integrin α4β7 on α4β7+ memory T helper cells (Homo sapiens, UniProt P13612+P26010); test: MAdCAM-1 competition / receptor occupancy assay in human whole blood, α4β7-positive Th memory cells; assay type: cell-based; details: human whole blood, inhibition of MAdCAM-1 binding to α4β7-positive Th memory cells, FACS; read-out: MADCAM FACS α4β7 Th mem
T1 construct: endogenous in cells
T1 sequence (P13612 34-1032): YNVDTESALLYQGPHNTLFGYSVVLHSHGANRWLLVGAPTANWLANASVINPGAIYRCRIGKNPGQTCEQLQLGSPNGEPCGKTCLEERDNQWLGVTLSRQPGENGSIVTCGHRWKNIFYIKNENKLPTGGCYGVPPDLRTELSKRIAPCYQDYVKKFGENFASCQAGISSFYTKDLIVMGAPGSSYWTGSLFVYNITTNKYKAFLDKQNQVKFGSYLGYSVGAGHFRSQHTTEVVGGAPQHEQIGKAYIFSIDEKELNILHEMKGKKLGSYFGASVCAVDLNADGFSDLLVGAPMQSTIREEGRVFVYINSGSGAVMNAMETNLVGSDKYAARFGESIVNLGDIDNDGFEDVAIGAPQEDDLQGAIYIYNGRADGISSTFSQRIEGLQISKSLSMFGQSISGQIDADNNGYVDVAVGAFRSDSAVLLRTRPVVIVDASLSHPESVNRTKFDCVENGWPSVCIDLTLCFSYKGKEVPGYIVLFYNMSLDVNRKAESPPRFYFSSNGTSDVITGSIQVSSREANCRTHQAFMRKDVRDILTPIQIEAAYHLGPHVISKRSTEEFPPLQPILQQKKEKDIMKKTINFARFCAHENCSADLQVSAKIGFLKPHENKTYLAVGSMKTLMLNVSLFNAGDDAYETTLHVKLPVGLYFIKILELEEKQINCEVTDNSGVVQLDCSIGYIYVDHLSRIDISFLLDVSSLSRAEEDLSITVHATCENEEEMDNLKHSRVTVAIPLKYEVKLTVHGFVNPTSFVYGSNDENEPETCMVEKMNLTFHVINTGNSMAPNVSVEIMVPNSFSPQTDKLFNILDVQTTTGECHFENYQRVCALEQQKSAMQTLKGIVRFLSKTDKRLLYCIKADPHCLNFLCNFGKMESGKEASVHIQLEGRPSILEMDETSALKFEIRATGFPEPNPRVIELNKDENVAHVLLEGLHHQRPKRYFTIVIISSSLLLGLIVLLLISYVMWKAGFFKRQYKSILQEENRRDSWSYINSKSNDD
T1 sequence (P26010 20-798): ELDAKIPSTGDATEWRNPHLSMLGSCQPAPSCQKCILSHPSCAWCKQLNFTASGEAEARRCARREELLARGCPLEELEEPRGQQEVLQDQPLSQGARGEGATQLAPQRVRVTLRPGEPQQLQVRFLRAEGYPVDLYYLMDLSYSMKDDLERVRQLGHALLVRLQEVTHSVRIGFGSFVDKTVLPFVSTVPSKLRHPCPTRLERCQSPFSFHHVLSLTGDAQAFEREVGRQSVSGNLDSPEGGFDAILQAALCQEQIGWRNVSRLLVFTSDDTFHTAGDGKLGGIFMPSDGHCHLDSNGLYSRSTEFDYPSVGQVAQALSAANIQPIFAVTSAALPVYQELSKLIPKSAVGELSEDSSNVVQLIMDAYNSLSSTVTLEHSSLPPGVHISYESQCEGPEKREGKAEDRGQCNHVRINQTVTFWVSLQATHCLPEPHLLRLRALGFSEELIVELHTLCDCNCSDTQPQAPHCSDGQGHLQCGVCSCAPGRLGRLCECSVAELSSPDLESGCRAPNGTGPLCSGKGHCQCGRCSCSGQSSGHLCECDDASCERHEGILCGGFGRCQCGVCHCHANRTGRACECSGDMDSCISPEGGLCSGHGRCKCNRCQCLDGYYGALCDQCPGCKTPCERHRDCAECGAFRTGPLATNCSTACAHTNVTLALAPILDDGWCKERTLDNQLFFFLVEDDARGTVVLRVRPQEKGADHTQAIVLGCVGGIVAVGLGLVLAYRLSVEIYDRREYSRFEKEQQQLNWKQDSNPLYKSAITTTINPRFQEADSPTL
Description: Analyte Competition Assay in CD4+ Integrin α4+β7-Lo Memory T Cells
Receptor occupancy in primary cells was determined by measuring the amount of biotinylated human recombinant MAdCAM-1-FC or human recombinant VCAM-1-Fc bound to selected cell populations using flow cytometry. Human recombinant MAdCAM-1-FC or human recombinant VCAM-1-FC (R&D systems) were biotinylated using commercially available reagents and protocol (Pierce).
Whole blood was collected from human donors in sodium heparin tubes. […] Cells were washed twice with 1 mL of 1X DPBS calcium magnesium free (CMF) (ThermoFisher Scientific) and resuspended in 100 microL of DPBS CMF.
Biotinylated human recombinant MAdCAM-1-Fc or VCAM-1-Fc were added at saturating concentration and incubated at room temperature for 1 hour. […] Cells were washed with 1 mL stain buffer-FBS (BD Biosciences) and resuspended in 100 μl stain Buffer-FBS (BD Biosciences) containing 4 mM MnCl2. […] Cells were then washed with 1 mL stain buffer-FBS and resuspended in […] stain buffer-FBS. The cells were incubated in the dark for 30 minutes at room temperature with 1 ul Streptavidin APC (Biolegend 0.2 mg/ml) and a panel of antibodies for the detection of memory T helper a4b7-positive cells subset. And amount of 5.0 ul each of the following antibodies were used; CD45 FITC (BioLegend 200 ug/ml), CD29 APC Cy7 (BioLegend 100 ug/ml), Integrin beta7 PE, (BioLegend concentration 50 μg/mL), CD49d V421 (BioLegend 50 μg/mL), CD3 V510 (BioLegend 30 μg/mL), CD4 PECy7 (BioLegend 100 μg/mL), CD45RO PerCP, BioLegend 200 μg/mL). The cells were then washed with stain-buffer-FBS and resuspended in 150 microL stain buffer-FBS for acquisition on the flow cytometer (BD FACSCanto™ flow cytometer and BDFACSDiva™ software). FACS data was acquire by electronic gating on the basis of forward versus side scatter, The cytometer was set to collect 20,000 events in each tube. Cell population were determined using the following markers, CD45+, CD3+, CD4+, CD45RO+, CD49d+, integrin b7, biotinylated ligands.
Compound receptor occupancy was defined as the decrease in the number of integrin β7+ or integrin β7-lo cells binding biotinylated rhMAdCAM-1 or rhVCAM-1, respectively.
Receptor occupancy was calculated with the following equation: 100−((% ligand-positive cells with compound/% ligand-positive cells DMSO)*100) In Vivo T Lymphocyte Trafficking Analysis in Mouse Model of Colitis

[2] = target: T2, integrin α4β7 (RPMI8866 human cells adhering to MAdCAM-1) (Homo sapiens, UniProt P13612+P26010); test: Integrin α4β7-MAdCAM cell adhesion assay (RPMI8866 cells); assay type: cell-based; details: RPMI8866 cells adhering to MAdCAM; read-out: RPMI8866 Adhesion α4β7/MAdCAM IC50
T2 construct: RMP18866 cells, which express integrin α4β7; host or cells: RPMI8866
T2 sequence (P13612 34-1032): T1 sequence (P13612 34-1032)
T2 sequence (P26010 20-798): T1 sequence (P26010 20-798)
Summary of the method: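 RPMI8866 cells were loaded with […] calcein in PBS for 30 min at 37° C. After plate washes with PBS, fluorescence of adherent cells was read, and no-cell control wells were subtracted from each test well to build the dose response.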

[3] = target: T3, recombinant integrin α4β1 (Homo sapiens, UniProt P05556+P13612); test: Integrin α4β1—VCAM-1 competition ELISA; assay type: binding; details: read-out: ELISA α4β1 Assay IC50
T3 construct: purchased R&D Systems 5397-A3-050
Summary of the method: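 Compound dilutions added to coated plate and shaken at room temperature for 2 h (300 rpm) to binding equilibrium. Wash buffer: 50 mM Tris, 100 mM NaCl, 1 mM MnCl2, 0.05% Tween. Bound Fc-tagged ligand detected with anti-human IgG Fc-HRP, 1 h at room temperature.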

T3 sequence (P05556 21-728 limits assumed, one chain of several): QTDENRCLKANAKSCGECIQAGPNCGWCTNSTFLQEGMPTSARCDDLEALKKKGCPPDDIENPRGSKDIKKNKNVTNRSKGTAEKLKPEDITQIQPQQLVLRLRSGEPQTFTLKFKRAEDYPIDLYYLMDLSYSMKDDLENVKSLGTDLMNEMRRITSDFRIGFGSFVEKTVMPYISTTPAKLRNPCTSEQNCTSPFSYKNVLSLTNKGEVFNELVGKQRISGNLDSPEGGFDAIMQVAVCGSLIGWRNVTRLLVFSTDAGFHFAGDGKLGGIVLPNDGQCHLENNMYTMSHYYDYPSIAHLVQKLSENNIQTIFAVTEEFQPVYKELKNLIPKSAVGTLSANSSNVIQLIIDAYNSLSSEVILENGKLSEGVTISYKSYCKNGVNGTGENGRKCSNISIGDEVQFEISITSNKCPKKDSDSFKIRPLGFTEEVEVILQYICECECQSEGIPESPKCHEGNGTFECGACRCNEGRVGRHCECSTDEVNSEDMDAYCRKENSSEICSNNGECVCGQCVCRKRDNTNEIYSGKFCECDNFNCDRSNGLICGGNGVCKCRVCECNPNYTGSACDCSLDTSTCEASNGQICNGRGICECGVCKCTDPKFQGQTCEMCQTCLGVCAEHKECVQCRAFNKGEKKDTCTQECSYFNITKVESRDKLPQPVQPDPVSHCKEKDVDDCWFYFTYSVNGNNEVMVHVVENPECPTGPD

| IC50 [1] [nM] | IC50 [2] [nM] | SMILES | IC50 [3] [nM] |
| --- | --- | --- | --- |
| 250 | 45 | CC(C)C[C@@H]1NC(=O)c2ccc(-c3ccc(N4CCN(C(=O)CCOCCOCCOCCOCCOCCOCCOCCOCCOCCOCCOCCC(=O)N5CCN(c6ccc(-c7ccc8cc7CNC(=O)[C@@H]7CCCN7[C@H](C(=O)NC(C)(C)C)[C@H](C)NC(=O)[C@H]([C@@H](C)O)NC(=O)[C@H](CC(=O)O)NC(=O)[C@H](CC(C)C)NC8=O)cc6)CC5)CC4)cc3)c(c2)CNC(=O)[C@@H]2CCCN2[C@H](C(=O)NC(C)(C)C)[C@H](C)NC(=O)[C@H]([C@@H](C)O)NC(=O)[C@H](CC(=O)O)NC1=O [Compound 503] |  |
| 64 | 25 | CC(C)C[C@@H]1NC(=O)c2ccc(-c3ccc(N4CCN(C(=O)c5ccccc5C(=O)N5CCN(c6ccc(-c7ccc8cc7CNC(=O)[C@@H]7CCCN7[C@H](C(=O)NC(C)(C)C)[C@H](C)NC(=O)[C@H]([C@@H](C)O)NC(=O)[C@H](CC(=O)O)NC(=O)[C@H](CC(C)C)NC8=O)cc6)CC5)CC4)cc3)c(c2)CNC(=O)[C@@H]2CCCN2[C@H](C(=O)NC(C)(C)C)[C@H](C)NC(=O)[C@H]([C@@H](C)O)NC(=O)[C@H](CC(=O)O)NC1=O [Compound 512] |  |

| SMILES | IC50 [1] [nM] | IC50 [2] [nM] | IC50 [3] [nM] |
| --- | --- | --- | --- |
| CC(C)C[C@@H]1NC(=O)[C@H]2Cc3ccccc3CN2C(=O)[C@H](Cc2cccc(CNC(=O)CCCCCC(=O)NCc3cccc(C[C@@H]4NC(=O)[C@@H]5CCCN5[C@H](C(=O)NC(C)(C)C)[C@H](C)NC(=O)[C@H]([C@@H](C)O)NC(=O)[C@H](CC(=O)O)NC(=O)[C@H](CC(C)C)NC(=O)[C@H]5Cc6ccccc6CN5C4=O)c3)c2)NC(=O)[C@@H]2CCCN2[C@H](C(=O)NC(C)(C)C)[C@H](C)NC(=O)[C@H]([C@@H](C)O)NC(=O)[C@H](CC(=O)O)NC1=O [Compound 527] | 126 | 43 | 1.1 |

Source: US11713338B2, “Cyclic peptides multimers targeting α-4-β-7 integrin” (priority 2016, dated 2023)
